Results from ChEMBL document CHEMBL4414665, “Dynamic Chirality in the Mechanism of Action of Allosteric CD36 Modulators of Macrophage-Driven Inflammation” (J Med Chem, 2019).
Calls of active or inactive are those of the source. The rule behind the calls is not given here.

Columns and labels:
[1] = biological target: Platelet glycoprotein 4 (Mus musculus) (UniProt Q08857); experiment: Modulation activity at CD36 in mouse J774 cells assessed as promotion of cholesterol efflux at 100 nM pre-incubated for 17 hrs before apolipoprotein A-I addition for 4 hrs by fluorescent-labeled cholesterol kit based assay relative to control; type: cell-based
Sequence of Platelet glycoprotein 4 (Mus musculus) (Q08857 whole entry): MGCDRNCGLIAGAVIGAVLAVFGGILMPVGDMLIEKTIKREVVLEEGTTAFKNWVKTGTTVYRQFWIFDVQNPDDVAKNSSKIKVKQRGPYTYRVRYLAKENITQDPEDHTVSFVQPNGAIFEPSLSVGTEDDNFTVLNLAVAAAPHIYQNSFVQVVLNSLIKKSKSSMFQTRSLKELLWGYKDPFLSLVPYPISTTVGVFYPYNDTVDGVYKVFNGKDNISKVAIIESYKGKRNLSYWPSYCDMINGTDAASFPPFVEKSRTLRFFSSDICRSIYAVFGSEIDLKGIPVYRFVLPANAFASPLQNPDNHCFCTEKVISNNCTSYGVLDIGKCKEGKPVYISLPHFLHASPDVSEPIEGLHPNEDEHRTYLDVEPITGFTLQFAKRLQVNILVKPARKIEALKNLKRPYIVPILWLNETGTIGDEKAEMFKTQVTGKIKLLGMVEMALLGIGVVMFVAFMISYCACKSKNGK

[2] = biological target: Platelet glycoprotein 4 (Rattus norvegicus) (UniProt Q07969); experiment: Displacement of photoactivated [125I]-Tyr-Bpa-Ala-hexarelin from CD36 in rat heart purified membranes
Sequence of Platelet glycoprotein 4 (Rattus norvegicus) (Q07969 whole entry): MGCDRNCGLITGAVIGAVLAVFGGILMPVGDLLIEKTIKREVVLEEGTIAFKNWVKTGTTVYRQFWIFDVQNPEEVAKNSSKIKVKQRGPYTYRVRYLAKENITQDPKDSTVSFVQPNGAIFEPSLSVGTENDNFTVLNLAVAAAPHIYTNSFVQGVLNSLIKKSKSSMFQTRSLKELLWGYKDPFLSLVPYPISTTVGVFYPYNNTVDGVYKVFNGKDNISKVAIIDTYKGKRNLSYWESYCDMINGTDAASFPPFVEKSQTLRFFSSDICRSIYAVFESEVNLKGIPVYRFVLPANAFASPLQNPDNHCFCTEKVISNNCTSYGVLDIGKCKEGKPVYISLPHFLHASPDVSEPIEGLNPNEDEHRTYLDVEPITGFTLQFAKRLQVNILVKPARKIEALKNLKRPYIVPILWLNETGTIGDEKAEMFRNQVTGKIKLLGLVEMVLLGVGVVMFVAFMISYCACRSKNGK

[3] = biological target: Platelet glycoprotein 4 (Mus musculus) (UniProt Q08857); experiment: Modulation activity at CD36 in mouse RAW264.7 cells assessed as inhibition of TLR-2 agonist R-FSL-1-induced NO overproduction relative to control; type: cell-based; parameters: concentration or dose not given beside the values; conditions: concentration not given here
[4] = biological target: Platelet glycoprotein 4 (Rattus norvegicus) (UniProt Q07969); experiment: Displacement of photoactivated [125I]-Tyr-Bpa-Ala-hexarelin from CD36 in rat heart purified membranes relative to control; type: cell membranes

Row | Activity [1] [%] | IC50 [2] [nM] | inhibition [3] [%] | inhibition [4] | SMILES
1 | 6 | 3320 | 9 |  | C=CCN1CC#CC[C@@H](NC(=O)[C@H](C)N)C(=O)N[C@@H](C)C(=O)N[C@@H](Cc2c[nH]c3ccccc23)C(=O)N[C@H](Cc2ccccc2)C(=O)N[C@H](C(N)=O)CCCC1
2 | 6 | 240 | 29 |  | C=CCN1CC#CCN(NC(=O)[C@H](C)N)C(=O)N[C@@H](C)C(=O)N[C@@H](Cc2c[nH]c3ccccc23)C(=O)N[C@H](Cc2ccccc2)C(=O)N[C@H](C(N)=O)CCCC1
3 | 7 | 660 | 17 |  | C=CCN1CC#CC[C@H](NC(=O)[C@H](C)N)C(=O)N[C@H](Cc2c[nH]c3ccccc23)C(=O)N[C@@H](C)C(=O)N[C@@H](Cc2c[nH]c3ccccc23)C(=O)N[C@H](Cc2ccccc2)C(=O)N[C@H](C(N)=O)CCCC1
4 |  |  | 18 | inactive | C=CCN1CC#CCN(N)C(=O)N[C@H](Cc2c[nH]c3ccccc23)C(=O)N[C@@H](C)C(=O)N[C@@H](Cc2c[nH]c3ccccc23)C(=O)N[C@H](Cc2ccccc2)C(=O)N[C@H](C(N)=O)CCCC1
5 | 17 | 670 | 20 |  | C=CCN1CC#CCN(NC(=O)[C@H](C)NC(C)=O)C(=O)N[C@H](Cc2c[nH]c3ccccc23)C(=O)N[C@@H](C)C(=O)N[C@@H](Cc2c[nH]c3ccccc23)C(=O)N[C@H](Cc2ccccc2)C(=O)N[C@H](C(N)=O)CCCC1
6 | 6 | 1040 | 10 |  | C=CCN1CC#CC[C@@H](NC(=O)[C@H](C)N)C(=O)N[C@H](Cc2c[nH]c3ccccc23)C(=O)N[C@@H](C)C(=O)N[C@@H](Cc2c[nH]c3ccccc23)C(=O)N[C@H](Cc2ccccc2)C(=O)N[C@H](C(N)=O)CCCC1
7 | 11 | 80 | 45 |  | C=CCN1CC#CCN(NC(=O)[C@H](C)N)C(=O)N[C@H](Cc2c[nH]c3ccccc23)C(=O)N[C@@H](C)C(=O)N[C@@H](Cc2c[nH]c3ccccc23)C(=O)N[C@H](Cc2ccccc2)C(=O)N[C@H](C(N)=O)CCCC1
8 | 13 | 1470 | 16 |  | C=CCN1CC#CC[C@H](NC(=O)[C@H](C)N)C(=O)N[C@@H](C)C(=O)N[C@@H](Cc2c[nH]c3ccccc23)C(=O)N[C@H](Cc2ccccc2)C(=O)N[C@H](C(N)=O)CCCC1
